Data from ChEMBL document CHEMBL4261613, “Discovery of a potent orally bioavailable retinoic acid receptor-related orphan receptor-gamma-t (RORγt) inhibitor, S18-000003” (Bioorg Med Chem Lett, 2018).
In brackets after ≈: the same amount, converted by molar mass.

Columns and labels:
[1] = molecular target: T1, Nuclear receptor ROR-gamma (Homo sapiens) (UniProt P51449); assay: (§1) Transrepression of recombinant human GAL4-DBD fused RORgammat LBD expressed in HEK293 cells after 20 hrs by luciferase reporter gene assay; format: cell-based
T1 sequence (whole entry): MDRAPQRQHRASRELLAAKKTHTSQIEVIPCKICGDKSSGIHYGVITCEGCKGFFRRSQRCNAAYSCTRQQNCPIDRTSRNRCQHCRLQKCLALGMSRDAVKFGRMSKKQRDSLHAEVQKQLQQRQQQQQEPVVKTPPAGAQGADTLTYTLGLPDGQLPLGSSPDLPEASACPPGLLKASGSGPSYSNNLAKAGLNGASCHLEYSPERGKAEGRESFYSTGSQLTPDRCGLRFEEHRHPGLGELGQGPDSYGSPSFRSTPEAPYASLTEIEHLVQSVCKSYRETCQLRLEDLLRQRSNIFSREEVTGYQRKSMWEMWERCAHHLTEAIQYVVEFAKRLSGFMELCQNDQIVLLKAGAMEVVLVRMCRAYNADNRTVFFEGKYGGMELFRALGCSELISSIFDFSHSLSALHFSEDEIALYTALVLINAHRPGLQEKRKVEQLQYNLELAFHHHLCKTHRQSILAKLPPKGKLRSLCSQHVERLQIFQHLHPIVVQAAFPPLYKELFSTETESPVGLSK

[2] = molecular target: T2, Nuclear receptor ROR-gamma (Homo sapiens, UniProt P51449); assay: as §1; format: cell-based
T2 sequence (P51449 whole entry): T1 sequence (whole entry)

[3] = molecular target: T3, Nuclear receptor ROR-gamma (Mus musculus) (UniProt P51450); assay: (§2) Transrepression of recombinant mouse GAL4-DBD fused RORgammat LBD expressed in HEK293 cells after 20 hrs by luciferase reporter gene assay; format: cell-based
T3 sequence (whole entry): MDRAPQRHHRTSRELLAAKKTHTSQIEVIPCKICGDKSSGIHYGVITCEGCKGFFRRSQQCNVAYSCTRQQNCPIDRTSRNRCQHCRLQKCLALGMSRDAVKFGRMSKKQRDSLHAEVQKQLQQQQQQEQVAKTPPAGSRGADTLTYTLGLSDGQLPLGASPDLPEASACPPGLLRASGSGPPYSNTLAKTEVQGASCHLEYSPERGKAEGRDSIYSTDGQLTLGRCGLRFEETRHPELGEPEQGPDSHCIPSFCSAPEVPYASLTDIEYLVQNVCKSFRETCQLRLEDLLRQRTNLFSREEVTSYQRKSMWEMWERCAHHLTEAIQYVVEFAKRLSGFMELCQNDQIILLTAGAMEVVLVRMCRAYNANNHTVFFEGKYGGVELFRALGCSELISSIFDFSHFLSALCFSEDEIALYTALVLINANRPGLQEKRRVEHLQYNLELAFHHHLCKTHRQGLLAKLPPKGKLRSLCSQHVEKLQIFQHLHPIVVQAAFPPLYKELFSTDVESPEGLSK

[4] = molecular target: T4, Nuclear receptor ROR-gamma (Mus musculus, UniProt P51450); assay: as §2; format: cell-based
T4 sequence (P51450 whole entry): T3 sequence (whole entry)

[5] = Stability in human liver microsomes assessed as parent compound remaining after 2 hrs by LC-MS/MS analysis; format: ADME, microsome; settings: read-out: Stability
[6] = Stability in rat liver microsomes assessed as parent compound remaining after 2 hrs by LC-MS/MS analysis; format: ADME, microsome; settings: read-out: Stability
[7] = Solubility of the compound in NaCl/HCl buffer at pH 1.2 by shake-flask method; format: physicochemical
[8] = Solubility of the compound in KH2PO4/Na2HPO4 buffer at pH 6.8 by shake-flask method; format: physicochemical
[9] = molecular target: T2, Nuclear receptor ROR-gamma; assay: Displacement of [3H]-Digoxin from recombinant human GST-fused RORgammat LBD after 1 to 4 hrs by scintillation counting method
[10] = molecular target: T4, Nuclear receptor ROR-gamma; assay: Transrepression of RORgammat in anti-CD3/CD28 stimulated C57BL/6 mouse CD4-positive T cells assessed as suppression of T cell differentiation to Th17 cells by measuring reduction in IL-17A level after 4 days by ELISA

Compound	Efficacy [1]	IC50 [2]	Efficacy [3]	IC50 [4]	remaining at 2 h [5]	remaining at 2 h [6]	solubility thermodynamic [7]	solubility thermodynamic [8]	IC50 [9]	IC50 [10]
CCS(=O)(=O)c1ccc(CC(=O)Nc2ccc(C(C)(C)C(=O)Nc3cc(F)ccn3)cc2)cc1	94%	0.031 µM	86%	0.32 µM	69%	47%	> 50 µM	> 50 µM		
CCS(=O)(=O)c1ccc(CC(=O)Nc2ccc(C(C)(C)C(=O)N3Cc4ccccc4C3)cc2)cc1	92%	0.26 µM	84%	1.9 µM					< 0.03 µM	
CCS(=O)(=O)c1ccc(CC(=O)Nc2ccc(C(C)(C)C(=O)N3CCCCC3)cc2)cc1	91%	0.43 µM	50%	> 10 µM					0.036 µM	
CCS(=O)(=O)c1ccc(CC(=O)Nc2ccc(C(C)(C)C(=O)Nc3ccccc3F)cc2)cc1	93%	0.0044 µM	76%	0.1 µM	67%	19%				0.1 µM
CCS(=O)(=O)c1ccc(CC(=O)Nc2ccc(C(C)(C)C(=O)N(C)c3ccccc3)cc2)cc1	93%	0.014 µM	76%	0.33 µM					< 0.03 µM	
CCS(=O)(=O)c1ccc(CC(=O)Nc2ccc(C(C)(C)C(=O)Nc3cc(Cl)ccn3)cc2)cc1	95%	0.0082 µM	86%	0.1 µM	40%	8.1%	> 50 µM	4.7 µM (≈ 2.35 µg/mL)		
CCS(=O)(=O)c1ccc(CC(=O)Nc2ccc(C(C)(C)C(=O)Nc3ccc(F)cc3F)cc2)cc1	91%	0.095 µM	73%	1.8 µM	97%	73%				1.3 µM
CCS(=O)(=O)c1ccc(CC(=O)Nc2ccc(C(C)(C)C(=O)Nc3ncccc3F)cc2)cc1	92%	0.31 µM	37%	> 10 µM	93%	80%	> 50 µM	> 50 µM		
CCOC(=O)C(C)(C)c1ccc(NC(=O)Cc2ccc(S(=O)(=O)CC)cc2)cc1	93%	0.4 µM	77%	3.1 µM					0.064 µM	
CCS(=O)(=O)c1ccc(CC(=O)Nc2ccc(C(C)(C)C(=O)N3CC4(CCC4)C3)cc2)cc1	89%	0.47 µM	55%	10 µM					0.033 µM	
CCS(=O)(=O)c1ccc(CC(=O)Nc2ccc(C(C)(C)C(=O)N(C)C)cc2)cc1	89%	0.37 µM	51%	> 10 µM					0.03 µM	
CCS(=O)(=O)c1ccc(CC(=O)Nc2ccc(C(C)(C)C(=O)Nc3ccccc3)cc2)cc1	93%	0.014 µM	69%	0.47 µM	8.5%	30%	46.9 µM (≈ 21.8 µg/mL)	26.6 µM (≈ 12.4 µg/mL)	< 0.03 µM	0.48 µM
CCS(=O)(=O)c1ccc(CC(=O)Nc2ccc(C(C)(C)C(=O)N3CCC3)cc2)cc1	90%	0.18 µM	52%	> 10 µM					< 0.03 µM	
CCS(=O)(=O)c1ccc(CC(=O)Nc2ccc(C(C)(C)C(=O)Nc3ccccn3)cc2)cc1	93%	0.04 µM	73%	1.3 µM	60%	36%	> 50 µM	> 50 µM		
CCS(=O)(=O)c1ccc(CC(=O)Nc2ccc(C(C)(C)C(=O)Nc3ccncc3)cc2)cc1	87%	1.8 µM	47%	> 10 µM	4.3%	25%	> 50 µM	> 50 µM		
CCS(=O)(=O)c1ccc(CC(=O)Nc2ccc(C(C)(C)C(=O)Nc3cccc(C(F)(F)F)n3)cc2)cc1	90%	0.5 µM	66%	5.4 µM	74%	71%	1.1 µM (≈ 0.587 µg/mL)	0.6 µM (≈ 0.32 µg/mL)		
CCS(=O)(=O)c1ccc(CC(=O)Nc2ccc(C(C)(C)C(=O)Nc3cc(C(F)(F)F)ccn3)cc2)cc1	94%	0.025 µM	94%	0.078 µM	36%	23%	26 µM (≈ 13.9 µg/mL)	0.5 µM (≈ 0.267 µg/mL)		
CCS(=O)(=O)c1ccc(CC(=O)Nc2ccc(C(C)(C)C(=O)Nc3ccccc3C)cc2)cc1	93%	0.14 µM	57%	6.8 µM	24%	6%				
CCS(=O)(=O)c1ccc(CC(=O)Nc2ccc(C(C)(C)C(=O)Nc3cc(C#N)ccn3)cc2)cc1	97%	0.04 µM	91%	0.29 µM	92%	72%	47 µM (≈ 23.1 µg/mL)	25 µM (≈ 12.3 µg/mL)		
CCS(=O)(=O)c1ccc(CC(=O)Nc2ccc(C(C)(C)C(=O)Nc3cccnc3)cc2)cc1	93%	0.15 µM	63%	4.5 µM						
CCS(=O)(=O)c1ccc(CC(=O)Nc2ccc(C(C)(C)C(=O)N3CCc4ccccc43)cc2)cc1	93%	0.01 µM	87%	0.11 µM					< 0.03 µM	
CCS(=O)(=O)c1ccc(CC(=O)Nc2ccc(C(C)(C)C(=O)Nc3cccc(F)c3)cc2)cc1	94%	0.0098 µM	84%	0.26 µM	2.7%	24%				0.29 µM
